Assay results reported in article PMC4749642, “Evaluation of anticonvulsant and antinociceptive properties of new N-Mannich bases derived from pyrrolidine-2,5-dione and 3-methylpyrrolidine-2,5-dione” (Naunyn-Schmiedeberg's Archives of Pharmacology, 2015).
Where “and” joins values, the source holds several entries; their conditions need not be identical. Equal entries are not always repeated. Where two headings read alike, the source gives them in different places. Marks after values point to notes of the source that are not given here.

Experiments:
[1] = system: V. harveyi BB7; assay: Vibrio harveyi mutagenicity assay, BB7 strain; settings: 40 ng/ml; for Mutagenicity BB7 M.I. (mutagenic index): positive assay when M.I. ≥ 2
Method: (§1) Two V. harveyi strains were used in the experiments: wild-type BB7 and genetically modified BB7XM (the UV-hypersensitive strain bearing plasmid pAB91273), which were described previously by Czyż et al. ([2000]).
(§2) Mutagenicity assay was performed as described previously (Czyż et al. [2000]). All experiments were carried out in triplicate and the results were expressed as mutagenic index (M.I. = the number of revertant colonies induced in the tested sample/the number of spontaneous revertants in the negative control) (Gulluce et al. [2010]).

[2] = system: mice; settings: ref Rybka et al. [2014]; cited from earlier work
[3] = system: mice; assay: Electroconvulsive threshold test (MEST test); format: in vivo, mouse; settings: 4 h before the test; for CS50 (mA) (CI): value with 95 % confidence interval
[4] = system: mice; assay: Hot plate test; format: in vivo, mouse; settings: dose 30 mg/kg i.p.
Method: (§3) Male CD-1 mice weighing 18–24 g were used in the in vivo experiment. The animals were kept at room temperature of 20 ± 2 °C under standard conditions (12:12 h light-dark cycle, standard pellet diet, tap water). All the experiments were performed between 8 a.m. and 3 p.m. For the experiments, the animals were selected in a random way and sacrificed by cervical dislocation immediately after the assay. The experimental protocol was approved by the Local Ethics Commission for Animal Experiments of the Jagiellonian University in Cracow, and all experiences were conducted in accordance with the 1996 NIH Guide for the Care and Use of Laboratory Animals.
(§4) The tested compounds 12 (N-[{4-(3,4-dichlorophenyl)-piperazin-1-yl}-methyl]-3-methylpyrrolidine-2,5-dione), 13 (N-[{4-(3-trifluoromethylphenyl)-piperazin-1-yl}-methyl]-3-methylpyrrolidine-2,5-dione), 15 (N-[{4-(3-methylphenyl)-piperazin-1-yl}-methyl]-3-methylpyrrolidine-2,5-dione), 23 (N-[{4-(3,4-dichlorophenyl)-piperazin-1-yl}-methyl]-pyrrolidine-2,5-dione), and 24 (N-[{4-(3-trifluoromethylphenyl)-piperazin-1-yl}-methyl]-pyrrolidine-2,5-dione) were synthesized at the Department of Medicinal Chemistry, Jagiellonian University Medical College in Cracow (Scheme 1). The synthesis of the investigated compounds was described earlier (Rybka et al. [2014]). The investigated compounds were suspended in a 0.5 % aqueous solution of methylcellulose (Loba Chemie, Germany). Lacosamide (Vimpat, UCB Pharma, Belgium), pilocarpine (Sigma-Aldrich, Germany), scopolamine butylbromide (Sigma-Aldrich, Germany), and formaldehyde (POCh, Poland) were dissolved in distilled water. Agents were administered intraperitoneally (i.p.) at a volume of 0.1 ml/10 g. Control animals were administered an equivalent volume of vehicle (0.5 % aqueous solution of methylcellulose) via the same route as the test compounds.
In the hot plate test, the mice were i.p. pretreated either with the test compound or vehicle before placing the animal on the hot plate apparatus (Panlab/Harvard Apparatus, Spain). This apparatus has an electrically heated surface and is supplied with a temperature controller that maintains the temperature at 55–56 °C. The time to the first reaction (licking or jumping) of mice to a nociceptive stimulus was recorded. The cutoff time was established to 60 s to avoid paw tissue damage (Sałat et al. [2014]).

[5] = system: L-type calcium channel (dihydropyridine site); assay: L-type Ca channel (dihydropyridine site) [3H]nitrendipine binding assay; settings: rat cerebral cortex
[6] = system: mice; assay: Spontaneous locomotor activity (photoresistor actometers); format: in vivo, mouse; settings: dose 30 mg/kg i.p.; 30-min session
Method: as §3, §4
Locomotor activity was measured with photoresistor actometers (Ugo Basile, Italy) connected to a counter for the recording of light-beam interruptions. Mice were individually placed in plastic cages for 30 min habituation period, and then the number of light-beam crossings was counted for a 30-min session. The cages were cleaned up with 70 % ethanol after each mouse.

[7] = system: V. harveyi BB7XM; assay: Vibrio harveyi mutagenicity assay, BB7XM strain; settings: 40 ng/ml; for Mutagenicity BB7XM M.I. (mutagenic index): positive assay when M.I. ≥ 2
Method: as §1, §2

[8] = system: V. harveyi BB7XM; assay: Vibrio harveyi antimutagenicity assay (vs NQNO), BB7XM strain; format: cell-based; settings: for Antimutagenicity BB7XM number of revertants Mean ± SD: test compound plus NQNO 40 ng/ml (NQNO line: mutagen only); for Antimutagenicity BB7XM Inhib. (%) of mutagenicity: test compound plus NQNO 40 ng/ml, 25–40 % moderate, 40 % or more strong
Method: as §1
(§5) Antimutagenicity assay was performed according to previously described procedures (Czyż et al. [2002]; Pękala et al. [2013]). […] This was calculated as follows: Inhibition (%) = 100 − [(R1/R2) × 100], where R1 is the number of revertants per plate induced by test compound plus mutagen and R2 is the number of revertants in the plate containing only the mutagen (Słoczyńska et al. [2010]). No antimutagenic effect was considered when the inhibition was less than 25 %; a moderate effect for an inhibition value between 25 and 40 % and a strong antimutagenicity were recorded for inhibition higher than 40 % (Gulluce et al. [2010]).

[9] = system: mice; set-up: method as in Rybka et al. [2014]; settings: ref Rybka et al. [2014], cited from earlier work; for motor coordination in the rotarod test (in words): up to a dose of 500 mg/kg
[10] = system: mice; assay: Formalin hind paw test; format: in vivo, mouse; settings: dose 30 mg/kg i.p.; for antinociceptive effect (reduction of licking response), second (late) phase: 15–30 min after 5 % formalin
Method: as §3, §4
Antinociceptive activity in the formalin hind paw test was examined according to Laughlin et al. ([2002]). Twenty microliters of a 5 % formalin solution was injected intraplantarly (i.pl.) into the right hind paw of the mouse. […] Time (in seconds) spent on licking or biting the injected hind paw in selected intervals, 0–5 and 15–30 min, was measured in each experimental group and was an indicator of nociceptive behavior. In mice, intraplantarly injection of diluted formalin produces a biphasic nocifensive behavioral response (i.e., licking or biting the injected hind paw). The acute nociceptive phase lasts for the first 5 min, whereas the second inflammatory phase occurs between 15 and 30 min after formalin injection.

[11] = system: mice; assay: Pilocarpine-induced seizure test; format: in vivo, mouse; settings: for Latency to status epilepticus (s) ± SEM: 4 h before pilocarpine 400 mg/kg; for Anticonvulsant effect (%) (prolongation of latency time to seizures vs vehicle): 4 h before pilocarpine, 100 mg/kg
Method: as §3, §4
The experimental procedure was originally described by Turski et al. ([1987]). Seizures were induced in mice by i.p. injection of pilocarpine at a dose of 400 mg/kg. Forty-five minutes before pilocarpine, animals were also pretreated with scopolamine butylbromide (1 mg/kg, i.p.) to reduce peripheral autonomic side effects and masticatory and stereotyped movements (Kowalczyk et al. [2014]). Direct observation was performed for 60 min to monitor the latency time to the onset of the limbic seizures, characterized by a subsequent development of behavioral symptoms, such as tremor, head bobbing, and myoclonic movements of the forelimbs progressing to recurrent myoclonic convulsions with rearing, salivation, falling, and status epilepticus (Łuszczki et al. [2008]; Turski [2000]).

[12] = system: V. harveyi BB7; assay: Vibrio harveyi antimutagenicity assay (vs NQNO), BB7 strain; format: cell-based; settings: for inhibition of NQNO-induced mutagenicity in BB7 strain (in words): NQNO 40 ng/ml; for Antimutagenicity BB7 number of revertants Mean ± SD: test compound plus NQNO 40 ng/ml (NQNO line: mutagen only); for Antimutagenicity BB7 Inhib. (%) of mutagenicity: test compound plus NQNO 40 ng/ml, 25–40 % moderate, 40 % or more strong
Method: as §1, §5

[13] = system: L-type calcium channel (dihydropyridine site); set-up: method as in Kamiński et al. [2015b]; settings: 100 μM; [3H]nitrendipine; rat cerebral cortex; ref Kamiński et al. [2015b]; cited from earlier work

| SMILES | Mutagenicity BB7 number of revertants Mean ± SD [1] | Mutagenicity BB7 M.I. (mutagenic index) [1] | ED50 in the s.c.PTZ test [2] [mg/kg] | increase of electroconvulsive threshold (ECT) vs vehicle ([3]; dose 10 mg/kg i.p.) [%] | CS50 (mA) (CI) ([3]; dose 10 mg/kg i.p.) | increase of electroconvulsive threshold (ECT) vs vehicle ([3]; dose 30 mg/kg i.p.) [%] | CS50 (mA) (CI) ([3]; dose 30 mg/kg i.p.) | % inhibition of control specific binding ([5]; 10 μM) [%] | % inhibition of control specific binding ([5]; 100 μM) [%] | influence on locomotor activity (number of crossings, in words) [6] | Mutagenicity BB7XM number of revertants Mean ± SD [7] | Mutagenicity BB7XM M.I. (mutagenic index) [7] | Antimutagenicity BB7XM number of revertants Mean ± SD [8] | Antimutagenicity BB7XM Inhib. (%) of mutagenicity [8] | motor coordination in the rotarod test (in words) [9] | antinociceptive effect (reduction of licking response), second (late) phase [10] [%] | Latency to status epilepticus (s) ± SEM ([11]; dose 100 mg/kg i.p.) [s] | Anticonvulsant effect (%) (prolongation of latency time to seizures vs vehicle) ([11]; dose 100 mg/kg i.p.) | inhibition of NQNO-induced mutagenicity in BB7 strain (in words) [12] | Antimutagenicity BB7 number of revertants Mean ± SD [12] | also measured |
| --- | --- | --- | --- | --- | --- | --- | --- | --- | --- | --- | --- | --- | --- | --- | --- | --- | --- | --- | --- | --- | --- |
| CC1CC(=O)N(CN2CCN(c3ccc(Cl)c(Cl)c3)CC2)C1=O (centres unmarked) [Compound 12, N-[{4-(3,4-dichlorophenyl)-piperazin-1-yl}-methyl]-3-methylpyrrolidine-2,5-dione] | 25 ± 4 | 1.5 | 134.0 | 51 | 7.94 (6.57–9.57)*** mA | 118 | 14.27 (8.21–24.80)** mA | 20.2 | 59.4 | did not significantly influence on locomotor activity | 14 ± 6 | 1.2 | 23 ± 5 | (5) % | did not impair the motor coordination | 74 | 468.8 ± 39.60 | 37% and 36.8% | moderate inhibitors | 28 ± 4 | prolongation of latency time to pain reaction vs vehicle [4]: 44%; latency time to pain reaction ([4]; mean ± SEM, vehicle 27.51 ± 1.36 s, cutoff 60 s): 39.73 ± 3.20 s; TD50 in rotarod test ([9]; mice): > 500 mg/kg; reduction of the duration of the licking response, first (neurogenic) phase ([10]; 0–5 min after 5 % formalin): 39%; Antimutagenicity BB7 Inhib. (%) of mutagenicity [12]: (26) % |
| O=C1CCC(=O)N1CN1CCN(c2ccc(Cl)c(Cl)c2)CC1 [Compound 23, N-[{4-(3,4-dichlorophenyl)-piperazin-1-yl}-methyl]-pyrrolidine-2,5-dione] | 19 ± 2 | 1.2 | 128.8 | 27 | 8.42 (7.55–9.39)** mA | 61 | 10.53 (8.06–13.77)**** mA | 12.3 | 65.9 | significantly reduced the number of crossings | 9 ± 3 | 0.7 | 24 ± 2 | (1) % | did not impair the motor coordination | 89 | 669.4 ± 73.04 | 95% and 95.4% | weakly suppressed | 32 ± 3 | antinociceptive activity in the hot plate test (in words) [4]: did not show activity; effect on nocifensive response, first (neurogenic) phase (in words) ([10]; 0–5 min after 5 % formalin): did not attenuate the nocifensive response in this phase in a statistically significant manner; Latency to status epilepticus (s) ± SEM ([11]; dose 30 mg/kg i.p.): 465.8 ± 37.61 s; Antimutagenicity BB7 Inhib. (%) of mutagenicity [12]: (15) % |
| CC1(C)O[C@@H]2[C@@H](CO[C@@]3(COS(N)(=O)=O)OC(C)(C)O[C@@H]23)O1 [Topiramate] | – | – | – | – | – | – | – | – | – | – | – | – | – | – | – | – | – | – | – | – | % inhibition of control specific binding [13]: 7.9% |
